Tested on: PR1#81::GUS
Assay: Effects of defense elicitors on PR1#81::GUS expression in bombarded GS3 immature embryos
Type: cell-based, maize
Settings: 1 mM salicylic acid or 0.1 mM jasmonic acid, 20-24 h; for PR1#81::GUS expression in the absence of exogenous NPR1: PR1#81::GUS alone; for PR1#81::GUS expression in the presence of exogenous NPR1: co-bombarded with Ubi::NPR1
Method: To evaluate the effects of defense elicitors on PR1#81::GUS expression with or without overexpression of NPR1, three experiments with a total of five replications were performed. GS3 immature embryos were bombarded with either PRI#81::GUS alone or in combination with Ubi::NPR1. Twenty-four hours after bombardment the embryos were treated with either 50 µg/ml of chitosan, 1 mM salicylic acid, or 0.1 mM jasmonic acid diluted in liquid osmotic medium. The embryos were then cultured at 28° C. for twenty to twenty-four hours before the histochemical GUS staining at 37° C. Visual observation of blue spots by histochemical GUS staining was used for interpretation of the transient assay results.

CC/C=C\C[C@H]1C(=O)CC[C@@H]1CC(=O)O [jasmonic acid]
PR1#81::GUS expression in the absence of exogenous NPR1: suppressed | PR1#81::GUS expression in the presence of exogenous NPR1: suppressed

O=C(O)c1ccccc1O [salicylic acid]
PR1#81::GUS expression in the absence of exogenous NPR1: up regulated | PR1#81::GUS expression in the presence of exogenous NPR1: up regulates

Source: patent publication US6713665B2, “Maize NPR1 promoter and methods of use in plant gene expression” (Pioneer Hi-Bred International, Inc., priority 1999, dated 2004)
